# Results reported in ChEMBL document CHEMBL2331174, “Inhibition of notch pathway signaling: a one compound mission to treat cancer” (ACS Med Chem Lett, 2013).
# Assays:
# [1] = Inhibition of gamma-secretase mediated cleavage of Notch 1 in human MOLT-4 cells assessed as nuclear accumulation of Notch 1 intracellular domain (N1ICD) after 24 hrs by ELISA; type: cell-based; settings: MOLT-4, 24 h
# [2] = Inhibition of gamma-secretase mediated cleavage of Notch 1 in human MOLT-3 cells assessed as nuclear accumulation of Notch 1 intracellular domain (N1ICD) after 24 hrs by ELISA; type: cell-based; settings: MOLT-3, 24 h
# [3] = Inhibition of gamma-secretase mediated cleavage of Notch 1 in human Jurkat cells assessed as nuclear accumulation of Notch 1 intracellular domain (N1ICD) after 24 hrs by ELISA; type: cell-based
# [4] = Inhibition of gamma-secretase mediated cleavage of Notch 1 in human K562 cells assessed as nuclear accumulation of Notch 1 intracellular domain (N1ICD) after 24 hrs by ELISA; type: cell-based; settings: K562, 24 h
# [5] = Inhibition of gamma-secretase mediated cleavage of Notch 1 in human SUP-T1 cells assessed as nuclear accumulation of Notch 1 intracellular domain (N1ICD) after 24 hrs by ELISA; type: cell-based; settings: SUP-T1, 24 h
# [6] = Inhibition of gamma-secretase mediated cleavage of Notch 1 in human CCRF-CEM cells assessed as nuclear accumulation of Notch 1 intracellular domain (N1ICD) after 24 hrs by ELISA; type: cell-based
# [7] = Inhibition of gamma-secretase mediated cleavage of Notch 1 in human U-87-MG cells assessed as nuclear accumulation of Notch 1 intracellular domain (N1ICD) after 24 hrs by ELISA; type: cell-based, U-87MG ATCC
# [8] = Inhibition of gamma-secretase mediated cleavage of Notch 1 in human MDA-MB-231 cells assessed as nuclear accumulation of Notch 1 intracellular domain (N1ICD) after 24 hrs by ELISA; type: cell-based; settings: MDA-MB-231, 24 h
# [9] = Inhibition of gamma-secretase mediated cleavage of Notch 1 in human DLD1 cells assessed as nuclear accumulation of Notch 1 intracellular domain (N1ICD) after 24 hrs by ELISA; type: cell-based; settings: DLD-1, 24 h
# [10] = Inhibition of gamma-secretase mediated cleavage of Notch 1 in human HCT 116 cells assessed as nuclear accumulation of Notch 1 intracellular domain (N1ICD) after 24 hrs by ELISA; type: cell-based; settings: HCT-116, 24 h
# [11] = Inhibition of gamma-secretase mediated cleavage of Notch 1 in human HEL 92.1.7 cells assessed as nuclear accumulation of Notch 1 intracellular domain (N1ICD) after 24 hrs by ELISA; type: cell-based; settings: HEL 92.1.7, 24 h
# [12] = Inhibition of gamma-secretase mediated cleavage of Notch 1 in human A375 cells assessed as nuclear accumulation of Notch 1 intracellular domain (N1ICD) after 24 hrs by ELISA; type: cell-based; settings: A-375, 24 h
# [13] = Inhibition of gamma-secretase mediated cleavage of Notch 1 in human SW480 cells assessed as nuclear accumulation of Notch 1 intracellular domain (N1ICD) after 24 hrs by ELISA; type: cell-based; settings: SW480, 24 h
# [14] = Inhibition of gamma-secretase mediated cleavage of Notch 1 in human BxPC3 cells assessed as nuclear accumulation of Notch 1 intracellular domain (N1ICD) after 24 hrs by ELISA; type: cell-based; settings: BXPC-3, 24 h
# [15] = Inhibition of gamma-secretase mediated cleavage of Notch 1 in human MIAPaCa2 cells assessed as nuclear accumulation of Notch 1 intracellular domain (N1ICD) after 24 hrs by ELISA; type: cell-based; settings: MIA PaCa-2, 24 h
# [16] = Inhibition of gamma-secretase mediated cleavage of Notch 1 in human A2780 cells assessed as nuclear accumulation of Notch 1 intracellular domain (N1ICD) after 24 hrs by ELISA; type: cell-based; settings: A2780, 24 h
# [17] = Inhibition of gamma-secretase mediated cleavage of transfected mouse Notch 1 (1703-2183) harboring N-terminal 23 aminoacid signal peptide sequence in human HEK293deltaE12 cells assessed as nuclear accumulation of Notch 1 intracellular domain (N1ICD) after 24 hrs by fluorescence cellular imaging analysis; type: cell-based
smiles,measurement,setting,value
C[C@H](NC(=O)CCC(F)(F)F)C(=O)N[C@@H]1C(=O)N(CCO)c2ncccc2-c2ccccc21 [CRENIGACESTAT],IC50,[1],0.74 nM
same,IC50,[2],0.61 nM
same,IC50,[3],5.95 nM
same,IC50,[4],0.74 nM
same,IC50,[5],1.24 nM
same,IC50,[6],0.76 nM
same,IC50,[7],0.28 nM
same,IC50,[8],0.5 nM
same,IC50,[9],0.98 nM
same,IC50,[10],0.72 nM
same,IC50,[11],0.23 nM
same,IC50,[12],0.48 nM
same,IC50,[13],0.1 nM
same,IC50,[14],0.39 nM
same,IC50,[15],0.71 nM
same,IC50,[16],1.03 nM
same,IC50,[17],0.41 nM
